Measurements: patent US20220233561A1, “HUMAN MILK OLIGOSACCHARIDES FOR USE IN THE TREATMENT OF SYMPTOMS IN A PATIENT SUFFERING FROM NON-COELIAC WHEAT AND / OR GLUTEN SENSITIVITY” (GLYCOM A/S, priority 2016, published 2022)

Key:
Format in all cases: cell-based
Conditions in all cases: 5 mg HMO/ml, compared to control cultures
[1] = tested on: GAL3ST2 expression in human LS174T cells; test: Example 3: goblet cell gene expression by quantitative RT-PCR, GAL3ST2
Description: (§1) 2′-FL and LNnT are tested with respect to their ability to induce MUC2, TFF3, EIMβ, CHST5, and GAL3ST2 expression in the human LS174T cell culture model of goblet cells. The human LS174T cell line is obtained from the American Type Culture Collection (ATCC). LS174T cells are maintained in minimum essential medium (MEM) supplemented according to instructions at 37° C. in air containing 5% of CO2. 2′-FL and LNnT are dissolved in cell culture grade water to the required concentration. The LS174T cells are treated with the HMO solution containing 0 or 5 mg HMO/ml. The LS174T cells are collected and suspended in Trizol reagent and total RNA is isolated using an RNA analysis kit (Qiagen) according to the manufacturer's instructions and the RNA isolates are quantified using Nanodrop analysis (Thermo Fisher Scientific). RNA isolates are reverse transcribed using a high capacity cDNA Reverse Transcription Kit (Applied Biosystems) to create cDNA, which is then used to assess gene expression via quantitative RT-PCR. For the quantitative RT-PCR, specific TaqMAN gene expression assays are obtained from Applied Biosystems, which include expression assays for MUC2, TFF3, CHST5 and GAL3ST2. Quantitative real-time PCR is performed using TaqMAN PCR Master Mix (Applied Biosystems). […] The results are analysed using SDS 2.3 software and calculated by delta Ct method. […]

[2] = tested on: TFF3 expression in human LS174T cells; test: Example 3: goblet cell gene expression by quantitative RT-PCR, TFF3
Description: as §1

[3] = tested on: MUC2 expression in human LS174T cells; test: Example 3: goblet cell gene expression by quantitative RT-PCR, MUC2
Description: as §1

[4] = tested on: CHST5 expression in human LS174T cells; test: Example 3: goblet cell gene expression by quantitative RT-PCR, CHST5
Description: as §1

SMILES: CC(=O)N[C@H]1[C@H](O[C@H]2[C@@H](O)[C@@H](CO)O[C@@H](O[C@H]3[C@H](O)[C@@H](O)C(O)O[C@@H]3CO)[C@@H]2O)O[C@H](CO)[C@@H](O[C@@H]2O[C@H](CO)[C@H](O)[C@H](O)[C@H]2O)[C@@H]1O (mixture of isomers) [LNnT, lacto-N-neotetraose]
- GAL3ST2 gene expression [1]: lack of induction
- TFF3 gene expression [2]: increases the expression
- MUC2 gene expression [3]: increases the expression
- CHST5 gene expression [4]: minimal induction
